The target of one assay is T1, human orexin-2 receptor (Homo sapiens, UniProt O43614).
T1 construct: expressed in transfected cells; host or cells: CHO cells (G418 selection)
T1 sequence (O43614 1-444): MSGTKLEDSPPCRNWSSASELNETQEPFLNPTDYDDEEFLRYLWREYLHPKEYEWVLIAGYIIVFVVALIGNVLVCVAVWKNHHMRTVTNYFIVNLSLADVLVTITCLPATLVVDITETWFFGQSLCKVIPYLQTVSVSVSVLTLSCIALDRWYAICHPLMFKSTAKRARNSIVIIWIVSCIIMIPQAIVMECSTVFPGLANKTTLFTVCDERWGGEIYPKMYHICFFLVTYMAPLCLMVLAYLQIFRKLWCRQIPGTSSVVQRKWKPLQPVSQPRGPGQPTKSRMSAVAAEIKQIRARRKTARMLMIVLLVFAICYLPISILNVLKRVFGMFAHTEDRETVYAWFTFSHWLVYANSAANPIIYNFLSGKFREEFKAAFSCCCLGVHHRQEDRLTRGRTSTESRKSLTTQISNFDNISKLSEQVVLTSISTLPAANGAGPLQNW
The experiment in a line: OX2R FLIPR Ca flux assay (CHO cells). In kind it is cell-based. Conditions: for IC50: CHO cells expressing human orexin-2 receptor, agonist 70 pM Ala-6,12 orexin-A; for Fold Selectivity OX2R vs. OX1R: ratio of OX1R FLIPR to OX2R FLIPR. On the procedure: (§1) The utility of the compounds in accordance with the present invention as orexin receptor OX1R and/or OX2R antagonists may be readily determined without undue experimentation by methodology well known in the art, including the “FLIPR Ca^+ Flux Assay” (Okumura et al., Biochem. Biophys. Res. Comm. 280:976-981, 2001). In a typical experiment the OX1 and OX2 receptor antagonistic activity of the compounds of the present invention was determined in accordance with the following experimental method. For intracellular calcium measurements, Chinese hamster ovary (CHO) cells expressing the rat orexin-1 receptor or the human orexin-2 receptor, are grown in Iscove's modified DMEM containing 2 mM L-glutamine, […], 1% hypoxanthine-thymidine supplement, 100 U/ml penicillin, 100 μg/ml streptomycin and 10% heat-inactivated fetal calf serum (FCS). The cells are seeded at 20,000 cells/well into Becton-Dickinson black 384-well clear bottom sterile plates coated with poly-D-lysine. All reagents were from GIBCO-Invitrogen Corp. The seeded plates are incubated overnight at 37° C. and 5% CO2. Ala-6,12 human orexin-A as the agonist is prepared as a 1 mM stock solution in 1% bovine serum albumin (BSA) and diluted in assay buffer (HBSS containing 20 mM HEPES, 0.1% BSA and 2.5 mM probenecid, pH7.4) for use in the assay at a final concentration of 70 pM. Test compounds are prepared as 10 mM stock solution in DMSO, then diluted in 384-well plates, first in DMSO, then assay buffer. On the day of the assay, cells are washed 3 times with 100 μl assay buffer and then incubated for 60 min (37° C., 5% CO2) in 60 μl assay buffer containing 1 μM Fluo-4AM ester, 0.02% pluronic acid, and 1% BSA. The dye loading solution is then aspirated and cells are washed 3 times with 100 μl assay buffer. 30 μl of that same buffer is left in each well. Within the Fluorescent Imaging Plate Reader (FLIPR, Molecular Devices), test compounds are added to the plate in a volume of 25 μl, incubated for 5 min and finally 25 μl of agonist is added. Fluorescence is measured for each well at 1 second intervals for 5 minutes and the height of each fluorescence peak is compared to the height of the fluorescence peak induced by 70 pM Ala-6,12 orexin-A with buffer in place of antagonist. For each antagonist, IC50 value (the concentration of compound needed to inhibit 50% of the agonist response) is determined. Alternatively, compound potency can be assessed by a radioligand binding assay (described in Bergman et. al. Bioorg. Med. Chem. Lett. 2008, 18, 1425-1430) in which the inhibition constant (Ki) is determined in membranes prepared from CHO cells expressing either the OX1 or OX2 receptor. The intrinsic orexin receptor antagonist activity of a compound which may be used in the present invention may be determined by these assays.

For another assay, the target named is T2, rat orexin-1 receptor (Rattus norvegicus, UniProt P56718).
T2 construct: expressed in transfected cells; host or cells: CHO cells (G418 selection)
T2 sequence (P56718 1-416): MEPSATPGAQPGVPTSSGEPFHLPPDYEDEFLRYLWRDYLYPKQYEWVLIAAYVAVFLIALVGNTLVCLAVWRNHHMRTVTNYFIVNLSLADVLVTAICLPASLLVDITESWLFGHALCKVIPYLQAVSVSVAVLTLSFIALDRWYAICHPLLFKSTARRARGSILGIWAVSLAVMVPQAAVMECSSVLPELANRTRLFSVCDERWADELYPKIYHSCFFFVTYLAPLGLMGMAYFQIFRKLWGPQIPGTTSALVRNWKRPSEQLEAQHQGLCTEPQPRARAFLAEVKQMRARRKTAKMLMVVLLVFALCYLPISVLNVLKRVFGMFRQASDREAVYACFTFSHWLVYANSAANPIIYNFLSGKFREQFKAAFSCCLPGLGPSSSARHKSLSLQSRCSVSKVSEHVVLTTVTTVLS
The experiment in a line: OX1R FLIPR Ca flux assay (CHO cells). In kind it is cell-based. Conditions: CHO cells expressing rat orexin-1 receptor; agonist 70 pM Ala-6,12 orexin-A. On the procedure: as §1

From patent US9732077B2, “Diazepane orexin receptor antagonists” (MERCK SHARP & DOHME CORP., priority 2013, dated 2017) come the findings set out here.

SMILES strings stand for the structures.

Usually IC50 stands for the concentration that inhibits the measured activity by half. On to `Cc1cc(C)nc(N2CCCN(C(=O)c3cccnc3OCC(F)(F)F)CC2)n1` [Example 1, (4-(4,6-dimethylpyrimidin-2-yl)-1,4-diazepan-1-yl)(2-(2,2,2-trifluoroethoxy)pyridin-3-yl)methanone], for which, on human orexin-2 receptor, the IC50 turned out to be 0.018 µM and the “Fold Selectivity OX2R vs. OX1R” value was determined as 343 fold. Moreover, at rat orexin-1 receptor, the half-inhibitory concentration (IC50) came to 6.17 µM.

On to `Cc1cc(C)nc(N2CCCN(C(=O)c3ccccc3-n3nccn3)CC2)n1` [Example 2, (2-(2H-1,2,3-triazol-2-yl)phenyl)(4-(4,6-dimethylpyrimidin-2-yl)-1,4-diazepan-1-yl)methanone], for which, at human orexin-2 receptor, the IC50 amounted to 0.028 µM and the “Fold Selectivity OX2R vs. OX1R” value is recorded as 96 fold. The compound also came in with an IC50 at rat orexin-1 receptor of 2.69 µM.

For the compound `Cc1cc(C)nc(N2CCCN(C(=O)c3ccc(F)cc3-n3nccn3)CC2)n1` [Example 3, 1-(4,6-dimethylpyrimidin-2-yl)-4-{[4-fluoro-2-(2H-1,2,3-triazol-2-yl)phenyl]carbonyl}-1,4-diazepane], at human orexin-2 receptor, the IC50 was determined as 0.035 µM and the “Fold Selectivity OX2R vs. OX1R” value was 142 fold. For the same compound, the IC50 on rat orexin-1 receptor worked out at 4.98 µM.

`Cc1cc(C)nc(N2CCCN(C(=O)c3cccnc3OC(C)C)CC2)n1` [Example 4, 1-(4,6-dimethylpyrimidin-2-yl)-4-{[2-(1-methylethoxy)pyridin-3-yl]carbonyl}-1,4-diazepane]: at human orexin-2 receptor, the IC50 came out at 0.106 µM and the “Fold Selectivity OX2R vs. OX1R” value is given as greater than 94 fold. In addition, the IC50 on rat orexin-1 receptor was greater than 10 µM.

As for `Cc1cc(C)nc(N2CCCN(C(=O)c3ccccc3OC(F)F)CC2)n1` [Example 5, 1-{[2-(difluoromethoxy)phenyl]carbon-yl}-4-(4,6-dimethylpyrimidin-2-yl)-1,4-diazepane], at human orexin-2 receptor, the IC50 was 0.076 µM and the “Fold Selectivity OX2R vs. OX1R” value is greater than 131 fold. Further, the IC50 on rat orexin-1 receptor was greater than 10 µM.

For `Cc1cc(C)nc(N2CCCN(C(=O)c3cccnc3OCC(F)F)CC2)n1` [Example 6, 1-{[2-(2,2-difluoroethoxy)pyridin-3-yl]carbonyl}-4-(4,6-dimethylpyrimidin-2-yl)-1,4-diazepane], on human orexin-2 receptor, the IC50 turned out to be 0.02 µM and the “Fold Selectivity OX2R vs. OX1R” value is on record as greater than 500 fold. The IC50 on rat orexin-1 receptor was greater than 10 µM.

On to `CCOc1ccccc1C(=O)N1CCCN(c2nc(C)cc(C)n2)CC1` [Example 7, 1-(4,6-dimethylpyrimidin-2-yl)-4-[(2-ethoxyphenyl)carbonyl]-1,4-diazepane], for which, on human orexin-2 receptor, the IC50 stood at 0.064 µM and the “Fold Selectivity OX2R vs. OX1R” value amounted to 132 fold. On rat orexin-1 receptor, this compound gave an IC50 of 8.5 µM.

As to `Cc1cc(C)nc(N2CCCN(C(=O)c3ccccc3-n3cccn3)CC2)n1` [Example 8, 1-(4,6-dimethylpyrimidin-2-yl)-4-{[2-(1H-pyrazol-1-yl)phenyl]carbonyl}-1,4-diazepane], at human orexin-2 receptor, the half-inhibitory concentration (IC50) came to 0.088 µM and the “Fold Selectivity OX2R vs. OX1R” value is greater than 113 fold. In addition, the IC50 at rat orexin-1 receptor is greater than 10 µM.

In the case of `Cc1cc(C)nc(N2CCCN(C(=O)c3ccccc3C3CC3)CC2)n1` [Example 9, 1-[(2-cyclopropylphenyl)-carbonyl]-4-(4,6-dimethylpyrimidin-2-yl)-1,4-diazepane], the figures for the IC50 at human orexin-2 receptor and on rat orexin-1 receptor were 0.017 µM and 1.81 µM, respectively. Also, on human orexin-2 receptor, the “Fold Selectivity OX2R vs. OX1R” value was 106 fold.

As for `Cc1cc(C)nc(N2CCCN(C(=O)c3ccccc3OC(F)(F)F)CC2)n1` [Example 10, 1-(4,6-dimethylpyrimidin-2-yl)-4-{[2-(trifluoromethoxy)-phenyl]carbonyl}-1,4-diazepane], at human orexin-2 receptor, the IC50 is 0.036 µM and the “Fold Selectivity OX2R vs. OX1R” value is greater than 277 fold. Also, on rat orexin-1 receptor, the IC50 is greater than 10 µM.

Turning to `Cc1cc(C)nc(N2CCCN(C(=O)c3cccnc3-c3ccccc3)CC2)n1` [Example 11, 1-(4,6-dimethylpyrimidin-2-yl)-4-[(2-phenylpyridin-3-yl)carbonyl]-1,4-diazepane], the IC50 on human orexin-2 receptor is 0.166 µM; on rat orexin-1 receptor, greater than 10 µM. Moreover, at human orexin-2 receptor, the “Fold Selectivity OX2R vs. OX1R” value is given as greater than 60 fold.

For `Cc1oc(N2CCCN(C(=O)c3ccccc3OC(F)F)CC2)nc1C(C)(C)O` [Example 12, (2-(difluoromethoxy)phenyl)(4-(4-(2-hydroxypropan-2-yl)-5-methyloxazol-2-yl)-1,4-diazepan-1-yl)methanone], on human orexin-2 receptor, the IC50 came out at 0.012 µM and the “Fold Selectivity OX2R vs. OX1R” value turned out to be 332 fold. The same compound yielded an IC50 at rat orexin-1 receptor of 3.99 µM.

Take `Cc1oc(N2CCCN(C(=O)c3ccccc3-n3nccn3)CC2)nc1C(C)(C)O` [Example 13, 2-[5-methyl-2-(4-{[2-(2H-1,2,3-triazol-2-yl)phenyl]carbonyl}-1,4-diazepan-1-yl)-1,3-oxazol-4-yl]propan-2-ol]: on human orexin-2 receptor, the IC50 was 0.027 µM and the “Fold Selectivity OX2R vs. OX1R” value came out at 47 fold. On rat orexin-1 receptor, the IC50 stood at 1.27 µM.

In the case of `Cc1oc(N2CCCN(C(=O)c3cccnc3OC(C)C)CC2)nc1C(C)(C)O` [Example 14, 2-[5-methyl-2-(4-{[2-(1-methylethoxy)pyridin-3-yl]carbonyl}-1,4-diazepan-1-yl)-1,3-oxazol-4-yl]propan-2-ol], the figures for the IC50 at human orexin-2 receptor and at rat orexin-1 receptor were 0.041 µM and greater than 10 µM, respectively. Moreover, at human orexin-2 receptor, the “Fold Selectivity OX2R vs. OX1R” value was greater than 244 fold.

Take `Cc1oc(N2CCCN(C(=O)c3ccccc3OC(F)(F)F)CC2)nc1C(C)(C)O` [Example 15, 2-[5-methyl-2-(4-{[2-(trifluoromethoxy)phenyl]carbonyl}-1,4-diazepan-1-yl)-1,3-oxazol-4-yl]propan-2-ol]: on human orexin-2 receptor, the IC50 amounted to 0.021 µM and the “Fold Selectivity OX2R vs. OX1R” value is reported as 137 fold. This compound gave an IC50 at rat orexin-1 receptor of 2.88 µM.

`Cc1oc(N2CCCN(C(=O)c3cccnc3OCC(F)F)CC2)nc1C(C)(C)O` [Example 16, 2-[2-(4-{[2-(2,2-difluoroethoxy)pyridin-3-yl]carbonyl}-1,4-diazepan-1-yl)-5-methyl-1,3-oxazol-4-yl]propan-2-ol]: on human orexin-2 receptor, the concentration for half-maximal inhibition (IC50) was 0.026 µM and the “Fold Selectivity OX2R vs. OX1R” value is reported as 142 fold. Moreover, the IC50 at rat orexin-1 receptor is 3.69 µM.

Turning to `Cc1oc(N2CCCN(C(=O)c3cccnc3OCC(F)(F)F)CC2)nc1C(C)(C)O` [Example 17, 2-[5-methyl-2-(4-{[2-(2,2,2-trifluoroethoxy)pyridin-3-yl]carbonyl}-1,4-diazepan-1-yl)-1,3-oxazol-4-yl]propan-2-ol], on human orexin-2 receptor, the IC50 came to 0.017 µM and the “Fold Selectivity OX2R vs. OX1R” value turned out to be 146 fold. On rat orexin-1 receptor, this compound registered an IC50 of 2.49 µM.

For `Cc1ccc(-n2nccn2)c(C(=O)N2CCCN(c3nc4ccccc4o3)CC2)c1` [Example B-3, reference compound], the “selectivity between orexin-2 receptor and orexin-1 receptor (in words)” value at human orexin-2 receptor (comparison with diazepane compounds of WO 2007/126935, whole cell FLIPR functional assay) is reported as “greater selectivity for the orexin-1 receptor than for the orexin-2 receptor”.
